Source: ChEMBL document CHEMBL1201862, “PubChem BioAssay data set” (2004)
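Assay format: 96-well plates, 48-hour exposure. GI50 marks 50% less growth.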 Active and inactive are the calls of the source. Cut-off read from the data, not from the text of the source: active = GI50 up to about 1.1 µM and inactive = higher. *1 amine or outer side, *2 acyl side, *3 side chain or, on linkers, in order; H or OH if unused. Where a SMILES comes first, the peptide text is derived from it. Bridges are numbered along the chain shown (N, C = ends). Roman numbers before positions name the chains, in order. [ ]: non-standard residue; d: D form. Actinocin(9to1) = Cc1c2oc3c(C)ccc(C(=O)[*:1])c3nc-2c(C(=O)[*:2])c(N)c1=O; NMeV = CN[CH](C(=O)O)C(C)C; Sar = CNCC(=O)O

Columns and labels:
Assay in all cases: NCI tumour cell line growth inhibition, 48 h
A498 = system: A498
ACHN = system: ACHN
DU-145 = system: DU-145
EKVX = system: EKVX
HL-60 = system: HL-60
HOP-62 = system: HOP-62
HOP-92 = system: HOP-92
KM12 = system: KM12
MDA-MB-435 = system: MDA-MB-435
MDA-N = system: MDA-N
Malme-3M = system: Malme-3M
OVCAR-3 = system: OVCAR-3
OVCAR-4 = system: OVCAR-4
OVCAR-8 = system: OVCAR-8
PC-3 = system: PC-3
SF-268 = system: SF-268
SNB-19 = system: SNB-19
SNB-75 = system: SNB-75
SR = system: SR
SW-620 = system: SW-620

Structure (SMILES): CC(C)(C)Nc1noc(=O)n1C(C)(C)C
- GI50 (A498): > 100 µM (inactive)
- GI50 (ACHN): > 100 µM (inactive)
- GI50 (DU-145): > 100 µM (inactive)
- GI50 (EKVX): > 100 µM (inactive)
- GI50 (HL-60): > 100 µM (inactive)
- GI50 (HOP-62): > 100 µM (inactive)
- GI50 (HOP-92): > 100 µM (inactive)
- GI50 (KM12): > 100 µM (inactive)
- GI50 (MDA-MB-435): > 100 µM (inactive)
- GI50 (MDA-N): > 100 µM (inactive)
- GI50 (Malme-3M): > 100 µM (inactive)
- GI50 (OVCAR-3): > 100 µM (inactive)
- GI50 (OVCAR-4): > 100 µM (inactive)
- GI50 (OVCAR-8): > 100 µM (inactive)
- GI50 (PC-3): > 100 µM (inactive)
- GI50 (SF-268): > 100 µM (inactive)
- GI50 (SNB-19): > 100 µM (inactive)
- GI50 (SNB-75): > 100 µM (inactive)
- GI50 (SR): > 100 µM (inactive)
- GI50 (SW-620): > 100 µM (inactive)

Structure (SMILES): CCOC(C/N=c1/nc(N(C)C)ss1)OCC
- GI50 (A498): > 82.8 µM (inactive)
- GI50 (ACHN): 26.2 µM (inactive)
- GI50 (DU-145): > 71.1 µM (inactive)
- GI50 (EKVX): 34.1 µM (inactive)
- GI50 (HL-60): 1.31 µM (inactive)
- GI50 (HOP-62): 65.6 µM (inactive)
- GI50 (HOP-92): 18.4 µM (inactive)
- GI50 (KM12): 4.61 µM (inactive)
- GI50 (MDA-MB-435): 1.91 µM (inactive)
- GI50 (MDA-N): 3.56 µM (inactive)
- GI50 (Malme-3M): 7.71 µM (inactive)
- GI50 (OVCAR-3): 9.89 µM (inactive)
- GI50 (OVCAR-4): 16.6 µM (inactive)
- GI50 (OVCAR-8): 28.1 µM (inactive)
- GI50 (PC-3): 14.3 µM (inactive)
- GI50 (SF-268): 30.1 µM (inactive)
- GI50 (SNB-19): > 67.1 µM (inactive)
- GI50 (SNB-75): 27.6 µM (inactive)
- GI50 (SR): 1.48 µM (inactive)
- GI50 (SW-620): 2.6 µM (inactive)

Structure (SMILES): Cc1c2oc3c(C)ccc(C(=O)NC4C(=O)NC(C(C)C)C(=O)N5CCCC5C(=O)N(C)CC(=O)N(C)C(C(C)C)C(=O)OC4C)c3nc-2c(C(=O)NC2C(=O)NC(C(C)C)C(=O)N3CCCC3C(=O)N(C)CC(=O)N(C)C(C(C)C)C(=O)OC2C)c(N)c1=O (stereo not given) (I: TVP[Sar][NMeV] / II: TVP[Sar][NMeV]; ester I:1-I:C, II:1-II:C; linker I:N-II:N via Actinocin(9to1); configuration not given here)
- GI50 (A498): 0.00169 µM (active)
- GI50 (ACHN): 0.000213 µM (active)
- GI50 (DU-145): 0.000359 µM (active)
- GI50 (EKVX): 0.00416 µM (active)
- GI50 (HL-60): 0.00017 µM (active)
- GI50 (HOP-62): 0.000486 µM (active)
- GI50 (HOP-92): 0.00177 µM (active)
- GI50 (KM12): < 0.0001 µM (active)
- GI50 (MDA-MB-435): 0.000461 µM (active)
- GI50 (MDA-N): 0.000197 µM (active)
- GI50 (Malme-3M): 0.000273 µM (active)
- GI50 (OVCAR-3): 0.00105 µM (active)
- GI50 (OVCAR-4): 0.000445 µM (active)
- GI50 (OVCAR-8): 0.000212 µM (active)
- GI50 (PC-3): 0.000428 µM (active)
- GI50 (SF-268): < 0.0001 µM (active)
- GI50 (SNB-19): 0.000112 µM (active)
- GI50 (SNB-75): < 0.0001 µM (active)
- GI50 (SR): < 0.0001 µM (active)
- GI50 (SW-620): 0.000698 µM (active)

Structure (SMILES): CC(=O)CCN1CC2CN=NC2(C#N)C1 (stereo not given)
- GI50 (A498): > 100 µM (inactive)
- GI50 (ACHN): 24.8 µM (inactive)
- GI50 (DU-145): > 100 µM (inactive)
- GI50 (EKVX): > 100 µM (inactive)
- GI50 (HL-60): 14.3 µM (inactive)
- GI50 (HOP-62): > 100 µM (inactive)
- GI50 (HOP-92): 22.3 µM (inactive)
- GI50 (KM12): > 100 µM (inactive)
- GI50 (MDA-MB-435): > 100 µM (inactive)
- GI50 (MDA-N): 75.7 µM (inactive)
- GI50 (Malme-3M): 69.7 µM (inactive)
- GI50 (OVCAR-3): > 100 µM (inactive)
- GI50 (OVCAR-4): > 100 µM (inactive)
- GI50 (OVCAR-8): > 100 µM (inactive)
- GI50 (PC-3): > 100 µM (inactive)
- GI50 (SF-268): > 100 µM (inactive)
- GI50 (SNB-19): > 100 µM (inactive)
- GI50 (SNB-75): > 100 µM (inactive)
- GI50 (SR): > 100 µM (inactive)
- GI50 (SW-620): 17 µM (inactive)
